Laboratory results: ChEMBL document CHEMBL1127817, “Antitumor agents. 150. 2',3',4',5',5,6,7-substituted 2-phenyl-4-quinolones and related compounds: their synthesis, cytotoxicity, and inhibition of tubulin polymerization” (J Med Chem, 1994)
pIC50: −log10 of the molar value.

What was measured:
RXF 393 = assay: In vitro inhibition of tumor cell growth of RXF-393, renal cancer cell line; type: functional; conditions: Homo sapiens
SF-295 = assay: In vitro inhibition of tumor cell growth of SF-295, CNS tumor cell line; type: functional; conditions: Homo sapiens
OVCAR-3 = assay: In vitro inhibition of tumor cell growth of OVCAR-3, ovarian cancer cell line; type: functional; conditions: Homo sapiens
Tubulin beta chain = Tubulin beta chain (Bos taurus, UniProt Q6B856); assay: Inhibition of tubulin polymerization; type: functional
Chain of Tubulin beta chain (Q6B856 whole entry): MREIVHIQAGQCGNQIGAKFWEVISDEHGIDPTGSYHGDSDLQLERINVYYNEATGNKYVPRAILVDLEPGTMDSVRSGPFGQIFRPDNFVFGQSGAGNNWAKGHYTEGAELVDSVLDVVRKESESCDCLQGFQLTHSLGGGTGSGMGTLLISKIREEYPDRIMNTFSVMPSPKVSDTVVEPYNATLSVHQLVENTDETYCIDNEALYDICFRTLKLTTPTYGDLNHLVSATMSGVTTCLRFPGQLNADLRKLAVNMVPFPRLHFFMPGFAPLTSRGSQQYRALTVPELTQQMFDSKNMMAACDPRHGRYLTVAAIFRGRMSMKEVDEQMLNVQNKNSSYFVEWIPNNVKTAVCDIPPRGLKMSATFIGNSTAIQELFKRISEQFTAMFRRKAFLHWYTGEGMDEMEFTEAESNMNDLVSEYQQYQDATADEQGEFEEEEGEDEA

DMS-114 = assay: In vitro inhibition of tumor cell growth of DMS114, a small-cell lung cancer cell line; conditions: Homo sapiens
KM-20L2 = assay: In vitro inhibition of tumor cell growth of KM20L2, colon cancer cell line; type: functional; conditions: Homo sapiens
SK-MEL-5 = assay: In vitro inhibition of tumor cell growth of SK-Mel-5, melanoma cell line; type: functional; conditions: Homo sapiens
HCT-116 = assay: In vitro inhibition of tumor cell growth of HCT116, colon cancer cell line; type: functional; conditions: Homo sapiens
SF-268 = assay: In vitro inhibition of tumor cell growth of SF-268, CNS tumor cell line; type: functional; conditions: Homo sapiens
NCI-H226 = assay: In vitro inhibition of tumor cell growth of NCI-H226, a non small-cell lung cancer cell line; type: functional; conditions: Homo sapiens

Row | SMILES | GI50 (OVCAR-3) | pIC50 (Tubulin beta chain) | GI50 (DMS-114) | GI50 (SK-MEL-5) | GI50 (HCT-116) | GI50 (NCI-H226) | GI50 (RXF 393) | GI50 (SF-295) | GI50 (KM-20L2) | GI50 (SF-268)
1 | Oc1cc(-c2ccc(Oc3ccccc3)cc2)nc2cc3c(cc12)OCO3 | > 100 µM | < 4.40 | > 100 µM | > 100 µM | > 100 µM | – | > 100 µM | > 100 µM | > 100 µM | > 100 µM
2 | CN(C)c1cccc(-c2cc(O)c3ccccc3n2)c1 | 41.7 µM | 5.82 | 45.7 µM | – | 58.9 µM | 29.5 µM | 35.5 µM | 28.2 µM | 34.7 µM | 75.9 µM
3 | COc1ccc(-c2cc(O)c3ccc(F)cc3n2)cc1 | > 100 µM | < 4.40 | > 100 µM | > 100 µM | > 100 µM | > 100 µM | > 100 µM | > 100 µM | > 100 µM | > 100 µM
4 | Oc1cc(-c2ccccn2)nc2ccc(Cl)cc12 | 63.1 µM | < 4.40 | 13.8 µM | 26.3 µM | 26.3 µM | 46.8 µM | 33.9 µM | 51.3 µM | 39.8 µM | 23.4 µM
5 | COc1cc(-c2cc(O)c3ccccc3n2)cc(OC)c1OC | > 100 µM | < 4.40 | > 100 µM | – | > 100 µM | > 100 µM | > 100 µM | > 100 µM | > 100 µM | > 100 µM
6 | COc1cc2nc(-c3cccc(N(C)C)c3)cc(O)c2cc1OC | < 1 µM | 4.82 | 4.79 µM | – | 5.01 µM | 1.86 µM | 2.24 µM | 1.95 µM | 2 µM | 5.25 µM
7 | COc1ccc(-c2cc(O)c3cc4c(cc3n2)OCO4)c(OC)c1OC | > 100 µM | < 4.40 | 29.5 µM | > 100 µM | > 100 µM | > 100 µM | > 100 µM | 75.9 µM | > 100 µM | > 100 µM
8 | COc1ccc(-c2cc(O)c3cc(OC)c(OC)cc3n2)cc1OC | > 100 µM | < 4.40 | – | > 100 µM | > 100 µM | > 100 µM | 67.6 µM | > 100 µM | – | > 100 µM
9 | COc1cccc(-c2cc(O)c3cc(OC)c(OC)cc3n2)c1 | 33.9 µM | 5.37 | 55 µM | – | 58.9 µM | 21.4 µM | 33.1 µM | 40.7 µM | 24 µM | 50.1 µM
10 | CN(C)c1ccc(-c2cc(O)c3ccccc3n2)cc1 | > 100 µM | < 4.40 | > 100 µM | – | > 100 µM | > 100 µM | > 100 µM | > 100 µM | > 100 µM | > 100 µM
11 | COc1cc2nc(-c3ccccc3)cc(O)c2cc1OC | – | 4.74 | – | – | – | – | – | – | – | –
12 | COc1cc(-c2cc(O)c3cc4c(cc3n2)OCO4)cc(OC)c1OC | > 100 µM | < 4.40 | 83.2 µM | 93.3 µM | 74.1 µM | > 100 µM | 21.9 µM | 32.4 µM | > 100 µM | 32.4 µM
13 | COc1ccc2nc(-c3ccccn3)cc(O)c2c1 | > 100 µM | < 4.40 | 22.4 µM | 28.2 µM | 33.9 µM | 36.3 µM | 2.51 µM | 51.3 µM | 35.5 µM | 24 µM
14 | Oc1cc(-c2ccccn2)nc2cccc(F)c12 | > 100 µM | < 4.40 | > 100 µM | 61.7 µM | – | > 100 µM | > 100 µM | > 100 µM | > 100 µM | –
15 | COc1ccc(-c2cc(O)c3cc(OC)ccc3n2)cc1 | > 100 µM | < 4.40 | > 100 µM | > 100 µM | > 100 µM | > 100 µM | > 100 µM | – | > 100 µM | 36.3 µM
16 | COc1ccc2nc(-c3ccc(O)cc3)cc(O)c2c1 | 0.302 µM | 5.25 | 0.178 µM | 0.288 µM | 0.209 µM | 0.209 µM | 0.17 µM | 0.245 µM | 0.407 µM | 0.417 µM
17 | Oc1c2c(nc3cc4c(cc13)OCO4)-c1ccccc1CC2 | > 100 µM | < 4.40 | > 100 µM | > 100 µM | > 100 µM | > 100 µM | > 100 µM | > 100 µM | > 100 µM | > 100 µM
18 | COc1ccc(CCc2cc(OC)c(OC)c(OC)c2)cc1O | – | 6.20 | – | – | – | – | – | – | – | –
19 | Oc1cc(-c2ccccn2)nc2cc(F)ccc12 | – | < 4.40 | 52.5 µM | 44.7 µM | 43.7 µM | > 100 µM | – | > 100 µM | > 100 µM | 29.5 µM
20 | Oc1c2c(nc3cc4c(cc13)OCO4)-c1ccccc1CCC2 | > 100 µM | < 4.40 | – | > 100 µM | 28.2 µM | > 100 µM | > 100 µM | 19.5 µM | – | > 100 µM
21 | COc1ccc2c(c1)CCc1c-2nc2cc3c(cc2c1O)OCO3 | > 100 µM | – | – | > 100 µM | > 100 µM | > 100 µM | > 100 µM | > 100 µM | > 100 µM | > 100 µM
22 | COc1cccc(-c2cc(O)c3ccccc3n2)c1 | 5.5 µM | 5.85 | 5.62 µM | – | 5.75 µM | 2.82 µM | 6.61 µM | 2.29 µM | 8.51 µM | 6.76 µM

Further lines, with some results ahead:

Row | GI50 (OVCAR-3) | pIC50 (Tubulin beta chain) | GI50 (DMS-114) | GI50 (SK-MEL-5) | GI50 (HCT-116) | GI50 (NCI-H226) | SMILES | GI50 (RXF 393) | GI50 (SF-295) | GI50 (KM-20L2) | GI50 (SF-268)
23 | 4.9 µM | 5.26 | 5.01 µM | 4.07 µM | 3.24 µM | 6.31 µM | COc1ccc(OC)c(-c2cc(O)c3cc4c(cc3n2)OCO4)c1 | 3.02 µM | 6.61 µM | 6.92 µM | 8.32 µM
24 | > 100 µM | < 4.40 | > 100 µM | > 100 µM | > 100 µM | > 100 µM | COc1ccc(-c2cc(O)c3cc4c(cc3n2)OCO4)cc1OC | > 100 µM | > 100 µM | > 100 µM | > 100 µM
25 | 30.9 µM | 4.74 | 32.4 µM | 7.76 µM | 29.5 µM | 35.5 µM | Oc1cc(-c2ccc[nH]2)nc2cc3c(cc12)OCO3 | 15.8 µM | 33.9 µM | 20 µM | > 100 µM
26 | 19.5 µM | 5.96 | 24 µM | 25.1 µM | 38 µM | 39.8 µM | Oc1cc(-c2ccc3c(c2)OCO3)nc2cc3c(cc12)OCO3 | 20.9 µM | 29.5 µM | 26.3 µM | 46.8 µM
27 | 0.245 µM | 6.15 | 0.407 µM | 0.195 µM | 0.372 µM | 0.316 µM | CN(C)c1cccc(-c2cc(O)c3cc4c(cc3n2)OCO4)c1 | 0.24 µM | 0.24 µM | 0.229 µM | 0.741 µM
28 | 2.24 µM | 5.64 | – | 2.19 µM | 2.82 µM | 2.88 µM | Oc1cc(/C=C/c2ccccc2)nc2cc3c(cc12)OCO3 | 4.27 µM | 3.02 µM | – | 7.08 µM
29 | 42.7 µM | 4.64 | 37.2 µM | 13.5 µM | 39.8 µM | 24.5 µM | Oc1cc(-c2ccco2)nc2cc3c(cc12)OCO3 | 25.1 µM | 28.2 µM | 21.4 µM | 41.7 µM
30 | > 100 µM | < 4.40 | > 100 µM | > 100 µM | > 100 µM | > 100 µM | CN(C)c1ccc(-c2cc(O)c3cc4c(cc3n2)OCO4)cc1 | > 100 µM | > 100 µM | > 100 µM | > 100 µM
31 | 0.162 µM | 6.20 | – | 0.0355 µM | 0.0708 µM | 0.316 µM | Oc1cc(-c2ccccc2)nc2cc3c(cc12)OCO3 | 0.112 µM | 0.191 µM | 0.182 µM | 0.0302 µM
32 | > 100 µM | < 4.40 | 26.3 µM | 42.7 µM | 40.7 µM | 93.3 µM | COc1ccc(-c2cc(O)c3cc4c(cc3n2)OCO4)c(OC)c1 | 45.7 µM | 45.7 µM | 42.7 µM | 63.1 µM
33 | 7.94 µM | 5.66 | 6.76 µM | 1.35 µM | 4.79 µM | 6.31 µM | Oc1cc(-c2cccs2)nc2cc3c(cc12)OCO3 | 2.04 µM | 3.24 µM | 14.5 µM | 11.2 µM
34 | > 100 µM | 5.89 | > 100 µM | > 100 µM | > 100 µM | > 100 µM | Oc1cc(-c2c[nH]c3ccccc23)nc2cc3c(cc12)OCO3 | > 100 µM | 91.2 µM | > 100 µM | > 100 µM
35 | > 100 µM | < 4.40 | > 100 µM | > 100 µM | > 100 µM | 28.8 µM | COc1ccc(-c2cc(O)c3cc4c(cc3n2)OCO4)cc1 | 38 µM | > 100 µM | > 100 µM | > 100 µM
